# Data as given in patent US9718774B2, “Indole carboxamide derivatives as P2X7 receptor antagonist” (ACTELION PHARMACEUTICALS LTD, priority 2012, dated 2017).
# Biological target: T1, human recombinant P2X7 receptor (Homo sapiens, UniProt Q99572)
# T1 construct: expressed in transfected cells
# T1 sequence (Q99572 1-595): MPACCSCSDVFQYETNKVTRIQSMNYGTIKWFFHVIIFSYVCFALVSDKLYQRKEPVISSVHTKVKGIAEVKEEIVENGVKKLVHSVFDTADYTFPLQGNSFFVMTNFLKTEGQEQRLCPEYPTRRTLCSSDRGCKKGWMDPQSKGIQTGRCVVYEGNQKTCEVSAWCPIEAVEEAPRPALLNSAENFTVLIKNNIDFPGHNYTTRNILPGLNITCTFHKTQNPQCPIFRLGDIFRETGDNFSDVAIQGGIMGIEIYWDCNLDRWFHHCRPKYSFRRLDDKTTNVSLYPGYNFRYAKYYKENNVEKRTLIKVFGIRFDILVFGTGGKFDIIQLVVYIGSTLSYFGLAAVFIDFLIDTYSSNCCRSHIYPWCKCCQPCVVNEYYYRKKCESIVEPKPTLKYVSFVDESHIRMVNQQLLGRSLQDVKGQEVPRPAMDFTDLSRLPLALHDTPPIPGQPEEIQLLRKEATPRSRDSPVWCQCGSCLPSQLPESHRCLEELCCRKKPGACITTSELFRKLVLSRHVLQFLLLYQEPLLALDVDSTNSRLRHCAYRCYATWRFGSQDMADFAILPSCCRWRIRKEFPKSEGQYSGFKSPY
# Experiment: YO-PRO assay: P2X7 receptor antagonistic activity in HEK cells stably expressing P2X7
# Type: cell-based
# Conditions: antagonistic activity with respect to the P2X7 receptor, read-out: IC50
# Protocol: The P2X7 receptor antagonistic activity of the compounds of formula (I) is determined in accordance with the following experimental method.
# Cell Line Generation and YO-PRO Assay
# Cell line generation was performed in general according to established molecular cloning protocols. Specifically, RNA was extracted from human whole blood using the Qiagen RNeasy kit (Qiagen, CH) according to the manufacturer's instructions. Subsequently cDNA was made (Superscript II, Invitrogen AG, CH) and the human P2X7 gene (genbank ref. BC011913) was amplified with the following primers: […] and […]. The amplified sequence was subsequently ligated into a pcDNA3.1 (+) NotI, NheI digested plasmid. Human embryonic kidney (HEK) cells (ATCC CRL—1573, Manassas, Va., USA) were transfected with the pcDNA3.1 (+).hP2X7 plasmid using lipofectamine 2000 (Invitrogen AG, CH) according to the manufacturer's instructions. Following a 24 h exposure to DNA, cells were trypsinized and re-seeded at low density in the presence of 250 μg Geneticin. Geneticin resistant cells were then selected during two consecutive rounds of cloning by serial limiting dilution with visual inspection. Individual clones were screened for P2X7 expression by applying ATP and recording the resultant uptake of YO-PRO1. Specific cell clones were chosen based on RNA and protein expression. HEK cells stably expressing P2X7 were used to screen drugs using the YO-PRO1 assay. Cells were grown to confluency in adherent culture at 37° C. in a humidified 5% CO2 incubator (split 1/5 every 3-4 days with DMEM, 10% FCS, 1% Penicillin/Streptomycin, 250 μg/ml Geneticin). Adherent cells were detached by incubation with Trypsine (1 ml per 165 cm^2 dish) for 2 minutes, then washed off with 10 ml PBS (without Mg^2+ and Ca^2+), and resuspended in DMEM, 10% FCS, 1% Penicillin/Streptomycin, no Geneticin. 10′000 cells per well (48 hours before the assay) or 25′000 cells per well (Vi-cell XR (Beckman Coulter) (24 hours before the assay) in 50 μl full medium were seeded on 384-well black-wall, clear bottom plates, that were coated before with 10 μl per well Poly-L-Lysine, incubated for 30-60 minutes at 37° C. and washed once with PBS. Medium was removed from cells and 50 μl of assay buffer containing 0.5 μM YO-PRO-1 was added into the wells. Solutions of antagonist compounds were prepared by serial dilutions of a 10 mM DMSO solution of the antagonist into PBS using a BioMek (Beckman Coulter). Each concentration was performed in duplicate. For IC50 measurements 10 concentration points were measured (10 μM being the highest concentration followed by 9 serial dilution steps 1/3). The cells were incubated with the antagonists of the present invention together with ATP at a final concentration of 250 μM for 90 minutes. During this time period, four time points were taken. Each time point comprised the average of several measurements made within a few seconds. Fluorescence was measured in the FLIPR tetra (Molecular Devices) using the filters appropriate for YO-PRO-1 fluorescence (excitation 485/20, emission 530/25). The FLIPR tetra was equipped with Molecular Devices Screen Works system control software to define and run experimental protocols. […] For IC50 measurements the maximum intensity is plotted against the concentration of compound to determine IC50 values.
row,SMILES,IC50
1,"Cc1cnc(C(CNC(=O)c2ccc3[nH]ccc3c2Cl)N2CCOCC2)cn1 (racemic) [Example 63, rac-4-Chloro-1H-indole-5-carboxylic acid [2-(5-methyl-pyrazin-2-yl)-2-morpholin-4-yl-ethyl]-amide]",257 nM
2,"Cc1ncc(C(CNC(=O)c2ccc3[nH]c(C)cc3c2Cl)N2CCOCC2)cn1 (racemic) [Example 72, rac-4-Chloro-2-methyl-1H-indole-5-carboxylic acid [2-(2-methyl-pyrimidin-5-yl)-2-morpholin-4-yl-ethyl]-amide]",463 nM
3,"O=C(NCC(c1ccc(Cl)nc1)C1CCCCC1)c1ccc2[nH]ccc2c1Cl (racemic) [Example 65, rac-4-Chloro-1H-indole-5-carboxylic acid [2-(6-chloro-pyridin-3-yl)-2-cyclohexyl-ethyl]-amide]",76 nM
4,"Cc1ncc(C(CNC(=O)c2cc(CC(C)C)c3[nH]ccc3c2Cl)N2CCOCC2)cn1 (racemic) [Example 98, rac-4-Chloro-7-isobutyl-1H-indole-5-carboxylic acid [2-(2-methyl-pyrimidin-5-yl)-2-morpholin-4-yl-ethyl]-amide]",10 nM
5,"Cc1ncc(C(CNC(=O)c2cc(C)c3[nH]ccc3c2Cl)N2CCOCC2)cn1 (single isomer, unassigned) [Example 96, 4-Chloro-7-methyl-1H-indole-5-carboxylic acid [2-(2-methyl-pyrimidin-5-yl)-2-morpholin-4-yl-ethyl]-amide]",9.6 nM
6,"COc1cc(C(=O)NCC(c2cnc(C)nc2)N2CCOCC2)c(Cl)c2cc[nH]c12 (single isomer, unassigned) [Example 115, 4-Chloro-7-methoxy-1H-indole-5-carboxylic acid [2-(2-methyl-pyrimidin-5-yl)-2-morpholin-4-yl-ethyl]-amide]",8.2 nM
7,"Cc1ncc(C(CNC(=O)c2cc(F)c3[nH]ccc3c2F)N2CCOCC2)cn1 (racemic) [Example 117, rac-4,7-Difluoro-1H-indole-5-carboxylic acid [2-(2-methyl-pyrimidin-5-yl)-2-morpholin-4-yl-ethyl]-amide]",118 nM
8,"O=C(NCC(c1cccc(F)c1)N1CCOCC1)c1ccc2[nH]ccc2c1Cl (racemic) [Example 37, rac-4-Chloro-1H-indole-5-carboxylic acid [2-(3-fluoro-phenyl)-2-morpholin-4-yl-ethyl]-amide]",32 nM
9,"O=C(NCC(c1cccnn1)N1CCCCC1)c1ccc2[nH]ccc2c1Cl (racemic) [Example 73, rac-4-Chloro-1H-indole-5-carboxylic acid (2-piperidin-1-yl-2-pyridazin-3-yl-ethyl)-amide]",1010 nM
10,"Cc1ncc(C(CNC(=O)c2cc(OCCOC(C)(C)C)c3[nH]ccc3c2Cl)N2CCOCC2)cn1 (racemic) [Example 112, rac-7-(2-tert-Butoxy-ethoxy)-4-chloro-1H-indole-5-carboxylic acid [2-(2-methyl-pyrimidin-5-yl)-2-morpholin-4-yl-ethyl]-amide]",32 nM
11,"O=C(NCC(c1ccc(Cl)nc1)N1CCOCC1)c1ccc2[nH]ccc2c1Cl (racemic) [Example 24, rac-4-Chloro-1H-indole-5-carboxylic acid [2-(6-chloro-pyridin-3-yl)-2-morpholin-4-yl-ethyl]-amide]",4.7 nM

# Other lines, results leading:
row,IC50,SMILES
1,9.7 nM,"Cc1ncc(C(CNC(=O)c2ccc3[nH]ccc3c2Cl)N2CCCCC2)cn1 (racemic) [Example 16, rac-4-Chloro-1H-indole-5-carboxylic acid [2-(2-methyl-pyrimidin-5-yl)-2-piperidin-1-yl-ethyl]-amide]"
2,636 nM,"CCOC(CNC(=O)c1ccc2[nH]ccc2c1Cl)c1cnc(C)nc1 (racemic) [Example 67, rac-4-Chloro-1H-indole-5-carboxylic acid [2-ethoxy-2-(2-methyl-pyrimidin-5-yl)-ethyl]-amide]"
3,831 nM,"Cc1ncc(C(CNC(=O)c2ccc3[nH]ccc3c2Cl)N2CCC2)cn1 (racemic) [Example 13, rac-4-Chloro-1H-indole-5-carboxylic acid [2-azetidin-1-yl-2-(2-methyl-pyrimidin-5-yl)-ethyl]-amide]"
4,9.4 nM,"Cc1ncc(C(CNC(=O)c2ccc3[nH]ccc3c2Cl)N2CCOCC2)cn1 (single isomer, unassigned) [Example 4, 4-Chloro-1H-indole-5-carboxylic acid [2-(2-methyl-pyrimidin-5-yl)-2-morpholin-4-yl-ethyl]-amide]"
5,15 nM,"CCC(CC)C(CNC(=O)c1ccc2[nH]ccc2c1Cl)c1cncnc1 (racemic) [Example 88, rac-4-Chloro-1H-indole-5-carboxylic acid (3-ethyl-2-pyrimidin-5-yl-pentyl)-amide]"
6,2650 nM,"Cc1ncc(C(CNC(=O)c2ccc3[nH]ccc3c2Cl)N(C)Cc2ccccc2)cn1 (racemic) [Example 87, rac-4-Chloro-1H-indole-5-carboxylic acid [2-(benzyl-methyl-amino)-2-(2-methyl-pyrimidin-5-yl)-ethyl]-amide]"
7,348 nM,"Cc1ncc(C(CNC(=O)c2ccc3[nH]ccc3c2Cl)N2CCC(C)CC2)cn1 (racemic) [Example 76, rac-4-Chloro-1H-indole-5-carboxylic acid [2-(4-methyl-piperidin-1-yl)-2-(2-methyl-pyrimidin-5-yl)-ethyl]-amide]"
8,6.8 nM,"Cc1ncc(C(CNC(=O)c2ccc3[nH]ccc3c2Cl)N2CCC(F)(F)CC2)cn1 (single isomer, unassigned) [Example 6, 4-Chloro-1H-indole-5-carboxylic acid [2-(4,4-difluoro-piperidin-1-yl)-2-(2-methyl-pyrimidin-5-yl)-ethyl]-amide]"
9,9.3 nM,"Cc1ncc(C(CNC(=O)c2ccc3[nH]ccc3c2Cl)N2CCCC(F)(F)C2)cn1 (racemic) [Example 79, rac-4-Chloro-1H-indole-5-carboxylic acid [2-(3,3-difluoro-piperidin-1-yl)-2-(2-methyl-pyrimidin-5-yl)-ethyl]-amide]"
10,20 nM,"Cc1ncc(C(CNC(=O)c2ccc3[nH]ccc3c2C)N2CCOCC2)cn1 (single isomer, unassigned) [Example 105, 4-Methyl-1H-indole-5-carboxylic acid [2-(2-methyl-pyrimidin-5-yl)-2-morpholin-4-yl-ethyl]-amide]"
11,7.9 nM,"Cc1ncc(C(CNC(=O)c2ccc3[nH]ccc3c2Cl)N2CCC(F)(F)CC2)cn1 (single isomer, unassigned) [Example 5, 4-Chloro-1H-indole-5-carboxylic acid [2-(4,4-difluoro-piperidin-1-yl)-2-(2-methyl-pyrimidin-5-yl)-ethyl]-amide]"
12,162 nM,"Cc1ncc(C(CNC(=O)c2ccc3[nH]ccc3c2Cl)NC2CCCC2)cn1 (racemic) [Example 83, rac-4-Chloro-1H-indole-5-carboxylic acid [2-cyclopentylamino-2-(2-methyl-pyrimidin-5-yl)-ethyl]-amide]"
13,87 nM,"Cc1ncc([C@H](CNC(=O)c2ccc3[nH]ccc3c2Cl)N2CCCCC2C)cn1 (mixture of isomers) [Example 77, 4-Chloro-1H-indole-5-carboxylic acid [(R)-2-(2-methyl-piperidin-1-yl)-2-(2-methyl-pyrimidin-5-yl)-ethyl]-amide]"
